In US11279682B2 (H. Lundbeck A/S, priority 2015, dated 2022):
Where two headings read alike, the source gives them in different places.

How the values were obtained:
[1] = cited from earlier work
[2] = Intrinsic dissolution rate, spinning-disc method; assay type: physicochemical; settings: for IDR (mean of 2 determinations (mg/cm2/min)): 50 mM Tris at pH 6.8, 37° C./200 RPM, as free base
Description: The intrinsic dissolution rate (IDR) is expressed as mg vortioxetine dissolved per cm^2 surface per min. The intrinsic dissolution rate is measured using the “spinning-disc method” (μDISS Profiler Instrument from Pion Instruments).
In order to define the surface from which the test compound dissolves, miniaturized disks of compacted pure test compound are made (10 mg). The disk holding the test compound is inserted into a Teflon cup containing an imbedded magnet. The cup is inserted into a vial containing 20 ml dissolution medium (37° C./200 RPM). The dissolved test compound is measured by a fibre optic detection system (200-400 nm). The concentration is determined by comparison with a standard solution and the calculated amount of test compound released (as free base) per surface area is plotted versus time. The slope gives the intrinsic dissolution rate. The measurements are performed in duplicate. The dissolution medium was 50 mM Tris at pH 6.8. Vortioxetine HBr β-form is defined in WO 2007/144005 (see e.g. example 4c and 4d).

[3] = Gelling experiments (vortioxetine pyroglutamate, a salt and water in a vial, left upside down); assay type: physicochemical
Text: In one embodiment, the invention relates to a gel comprising vortioxetine pyroglutamate, a salt and water. […] A gel of the present invention is particularly useful for oral administration because it is easily swallowed compared to other oral administration forms, in particular tablets and capsules. A gel of the present invention may comprise other ingredients known in pharmaceutical science, in particular taste modifiers, as discussed above. In the present context and in line with the USP definition of a gel, a gel is intended to indicate a semisolid system consisting of either small […] or large organic molecules interpenetrated by a liquid. A gel thus presents as a coherent, viscous, plastic or non-disintegrating phase. […] In one embodiment, said gel comprises 0.1 M-1 M salt, such as 0.1 M-0.5 M salt, such as 0.1 M-0.3 M salt. […] The amounts of vortioxetine pyroglutamate are indicated as free base. It is the experience of the inventors that the volume of the aqueous phase and the final gel are roughly similar when the gel comprises a therapeutically relevant dose in a therapeutically relevant volume.
The gelling experiments were carried out in a 4 ml cylindrical vial with an inner diameter of approximately 1 cm.

[4] = Dynamic Vapour Sorption (hygroscopicity); assay type: physicochemical; settings: for Water absorbed (DVS, change in mass): humidity up to / at 95% relative humidity, 25° C.
Description: Dynamic Vapour Sorption spectra were obtained on equipment from SMS Systems (DVS Advantage). The change in mass (relative to the dry state) of a sample (10-20 mg) was determined as a function of the relative humidity (P/P0) at 25° C.

[5] = known salts, values from the cited reference
[6] = Example 1: 5.5 mg, potassium bromide in water 0.17 M, 1.0 mL, 4 mL vial
[7] = Example 3: 6.2 mg, sodium bromide total 0.26 M, 1.0 mL, 4 mL vial
[8] = Example 4: 10.7 mg, sodium bromide total 0.20 M, 1.0 mL, 4 mL vial
[9] = Example 5: 0.80 g, sodium chloride in water 0.20 M, 100 mL, 250 mL round-bottomed flask
[10] = Example 6: 8.0 mg, sodium chloride total 0.26 M, 1.0 mL, 4 mL vial
[11] = Example 7: 11.2 mg, sodium chloride total […], 1.0 mL, 4 mL vial
[12] = Example 9: 14 mg, sodium chloride 26 mg and water 2.0 mL, 4 mL vial
[13] = Example 2: 10.2 mg, potassium bromide in water 0.23 M, 1.0 mL, 4 mL vial
[14] = Example 8: 7.6 mg, sodium bromide in water 0.18 M, 1.0 mL, 4 mL vial

Br.Cc1ccc(Sc2ccccc2N2CCNCC2)c(C)c1
Solubility ([1]; (Calculated), WO 2014/044721): 3000 to 3800 µg/mL

O=C1CCC(C(=O)O)N1 (racemic) [DL-Pyroglutamate]
IDR (mean of 2 determinations (mg/cm2/min)) [2]: 14.7 mg/cm2/min

CC(O)C(=O)O.Cc1ccc(Sc2ccccc2N2CCNCC2)c(C)c1 [DL-lactate β-form]
Solubility [1, 5]: 8000 µg/mL

Br.Cc1ccc(Sc2ccccc2N2CCNCC2)c(C)c1 [HBr β-form, reference compound]
IDR (mean of 2 determinations (mg/cm2/min)) [2]: 0.10 mg/cm2/min
Solubility [1, 5]: 1200 µg/mL

Cc1ccc(Sc2ccccc2N2CCNCC2)c(C)c1.Cl [HCl]
Solubility [1, 5]: 3000 µg/mL

CC(O)C(=O)O.Cc1ccc(Sc2ccccc2N2CCNCC2)c(C)c1.O [L-lactate Monohydrate2]
Solubility [1, 5]: 26000 µg/mL

Cc1ccc(Sc2ccccc2N2CCNCC2)c(C)c1.O.O=C1CCC(C(=O)O)N1 [vortioxetine (DL)-pyroglutamate MH]
Standing time until a clear gel was formed [3, 6]: less than 1 minute
Time vial left upside down with gel properties maintained [3, 6]: more than 1 hour
Standing time until a clear gel was formed [3, 7]: less than 1 minute
Time vial left upside down with gel properties maintained [3, 7]: more than 30 minutes
Standing time until a clear gel was formed [3, 8]: less than 1 minute
Time vial left upside down with gel properties maintained [3, 8]: more than 1 hour
Standing time until a clear gel was formed [3, 9]: 2 min
Time flask left upside down with gel properties maintained [3, 9]: more than 30 minutes
Standing time until a clear gel was formed [3, 10]: 6 min
Time vial left upside down with gel properties maintained [3, 10]: more than 1 hour
Standing time until a clear gel was formed [3, 11]: 5 min
Time vial left upside down with gel properties maintained [3, 11]: more than 30 minutes
Standing time until gel was formed [3, 12]: less than 1 minute
Time vial left upside down with gel properties maintained [3, 12]: more than 10 minutes
Hygroscopicity (DVS) ([4]; at 95% relative humidity): hygroscopic
Water absorbed (DVS, change in mass) [4]: more than 10%
Hygroscopicity (DVS) ([4]; up to 80% relative humidity at 25° C.): not hygroscopic

Cc1ccc(Sc2ccccc2N2CCNCC2)c(C)c1.O=C1CCC(C(=O)O)N1 [vortioxetine (DL)-pyroglutamate α-form]
Standing time until a clear gel was formed [3, 13]: less than 1 minute
Time vial left upside down with gel properties maintained [3, 13]: more than 1 hour
Hygroscopicity (DVS) ([4]; DVS spectrum up to 95% relative humidity): not hygroscopic
Water absorbed (DVS, change in mass) ([4]; listed as vortioxetine (DL)pyroglutamate α-form): Less than 0.3%

Cc1ccc(Sc2ccccc2N2CCNCC2)c(C)c1.O=C1CCC(C(=O)O)N1 [vortioxetine (L)-pyroglutamate, Vortioxetine (L)-pyroglutamate]
Standing time until a clear gel was formed [3, 14]: less than 1 minute
Time vial left upside down with gel properties maintained [3, 14]: more than 30 minutes
Water absorbed (DVS, change in mass) [4]: 2.7%
IDR (mean of 2 determinations (mg/cm2/min)) [2]: 14.9 mg/cm2/min

Cc1ccc(Sc2ccccc2N2CCNCC2)c(C)c1.O=C1CCC(C(=O)O)N1 [vortioxetine pyroglutamate]
Dissolution rate compared to the HBr salt ([2]; Example 18): markedly higher dissolution rate

Maleate
Solubility [1, 5]: 1000 µg/mL

Phosphate
Solubility [1, 5]: 1000 µg/mL
